Test results taken from the CheMixHub viscosity set.

Assay: xn = mol fraction of the nth substance listed

CC(=O)O + CS(C)=O
viscosity [mPa·s]
Settings | 298.15 K | 303.15 K | 308.15 K | 313.15 K | 318.15 K | 323.15 K
101 kPa, x2 = 0.2 | 2.359 | – | – | – | – | –
101 kPa, x2 = 0.4 | 2.806 | – | – | – | – | –
101 kPa, x2 = 0.6 | 2.525 | – | – | – | – | –
101 kPa, x2 = 0.8 | 2.231 | – | – | – | – | –
101.33 kPa, x1 = 0.0999 | – | 1.891 | 1.728 | 1.588 | 1.463 | 1.353
101.33 kPa, x1 = 0.199 | – | 1.975 | 1.803 | 1.655 | 1.525 | 1.411
101.33 kPa, x1 = 0.2973 | – | 2.082 | 1.898 | 1.738 | 1.605 | 1.482
101.33 kPa, x1 = 0.4013 | – | 2.265 | 2.06 | 1.884 | 1.732 | 1.59
101.33 kPa, x1 = 0.5005 | – | 2.383 | 2.165 | 1.975 | 1.809 | 1.664
101.33 kPa, x1 = 0.5997 | – | 2.46 | 2.223 | 2.024 | 1.848 | 1.695
101.33 kPa, x1 = 0.6966 | – | 2.374 | 2.148 | 1.946 | 1.78 | 1.628
101.33 kPa, x1 = 0.8068 | – | 2.05 | 1.857 | 1.694 | 1.549 | 1.425
101.33 kPa, x1 = 0.9006 | – | 1.601 | 1.464 | 1.345 | 1.241 | 1.149
101.33 kPa, x2 = 0.0978 | 1.755 | – | 1.458 | – | 1.229 | –
101.33 kPa, x2 = 0.1997 | 2.299 | – | 1.876 | – | 1.552 | –
101.33 kPa, x2 = 0.2991 | 2.631 | – | 2.142 | – | 1.762 | –
101.33 kPa, x2 = 0.4069 | 2.728 | – | 2.228 | – | 1.84 | –
101.33 kPa, x2 = 0.5247 | 2.661 | – | 2.17 | – | 1.784 | –
101.33 kPa, x2 = 0.6036 | 2.465 | – | 2.034 | – | 1.694 | –
101.33 kPa, x2 = 0.7038 | 2.303 | – | 1.91 | – | 1.591 | –
101.33 kPa, x2 = 0.804 | 2.178 | – | 1.804 | – | 1.507 | –
101.33 kPa, x2 = 0.903 | 2.081 | – | 1.733 | – | 1.443 | –
